# Measurements from the CATMoS acute toxicity set (Mansouri et al. 2021).
# Assay: GHS categories as the set defines them, by LD50: 1 up to 5, 2 up to 50, 3 up to 300, 4 up to 2000, 5 above 2000 mg/kg
# Settings: rat; in vivo; po
row,Compound,GHS category
1,Clc1ccc(N/C(=N/C2CCCCC2)c2ccccc2)c(Cl)c1,5
2,C=COCCCN,4
3,CCCCCCCCC(C)C,5
4,CC1CC(C)C(C)CC1C (stereo unspecified),5
5,CCC(=O)O[C@]1(C(=O)CCl)[C@@H](C)C[C@H]2[C@@H]3CCC4=CC(=O)C=C[C@]4(C)[C@@]3(F)[C@@H](O)C[C@@]21C,5
6,O=C1CCC(N2C(=O)c3ccccc3C2=O)C(=O)N1CN1CCOCC1 (stereo unspecified),5
7,Clc1cc(Cl)c2oc(C3(Cn4cncn4)OCCCO3)cc2c1,4
8,CCOc1nc2cccc(C(=O)O)c2n1Cc1ccc(-c2ccccc2-c2nnn[nH]2)cc1,5
9,CN1C(=O)C(C)(C)Oc2cc(C(=O)c3ccc(Cl)cc3)ccc21,5
10,CN(C)C(=O)OC1N=C(c2ccccc2)c2cc(Cl)ccc2N(C)C1=O (stereo unspecified),5
11,CC1CCCO1 (stereo unspecified),4
12,CC(C)=CCN(CC=C(C)C)CCC(C#N)(CCN(CC=C(C)C)CC=C(C)C)c1cccc2ccccc12,4
13,CCOC[C@@H]1CO[C@@](Cn2ccnc2)(c2cc3cc(Cl)cc(Cl)c3o2)O1,4
14,CC(=O)OC1CCC(NCc2ccccc2N)CC1 (stereo unspecified),5
15,O=c1c2cc(Oc3ccc(Cl)cc3)ccc2nnn1Cc1cccnc1,5
16,CNc1cc(OC)c(C(=O)N[C@H]2CCN(Cc3ccccc3)[C@H]2C)cc1Cl,4
17,CCC(=O)CCC1C(C)=CCCC1(C)C (stereo unspecified),5
18,CCCCCCOC(=O)CC(C)C,5
19,CO/C=C(/C(=O)OC)c1ccccc1Oc1cc(Oc2ccccc2C#N)ncn1,5
20,O=C1c2ccc(N(c3ccc(Cl)cc3)c3ccc(Cl)cc3)cc2C(=O)N1Cc1cccnc1,5
21,NC(=O)[C@@H]1C[C@]2(NC(=O)NC2=O)c2cc(F)ccc2O1,5
22,CC1(C)CC2(CC(C)(C)c3ccc(O)cc32)c2cc(O)ccc21,5

row,Compound,GHS category
1,CCCCCCCCCCCCO[PH](=O)OCCCCCCCCCCCC,5
2,C=COCC1CCC(COC=C)CC1 (stereo unspecified),5
3,CCC/C=C/COC(C)=O,5
4,O=S(=O)(O)c1ccc(N2N=C(c3ccc(Cl)cc3)CC2c2ccccc2)cc1 (stereo unspecified),5
5,CCCCCC(O)CCO (stereo unspecified),5
6,C[C@H]1O[C@]2(CS1)CN1CCC2CC1,3
7,Cc1cccc(Nc2ccncc2S(=O)(=O)NC(=O)NC(C)C)c1,5
8,CC(C)COC(=O)Cc1ccccc1,5
9,O=CC(O)C(O)C(O)C(O)COC1OC(CO)C(O)C(O)C1O (stereo unspecified),4
10,O=C(c1ccc(Cl)cc1)N1CCN=C1c1ccccc1,4
11,CC(C)OC(=O)c1ccccc1OC(N)=O,5
12,CC(C)[C@H](N)C(=O)O,5
13,CCCCCCCCCCCCCCCCN(C)C,5
14,Nc1nc2c(ncn2[C@@H]2O[C@H](COP(=O)(O)O)[C@@H](O)[C@H]2O)c(=O)[nH]1,5
15,CCCCC1(CC)COC(Cn2cncn2)(c2cc3ccccc3o2)OC1 (stereo unspecified),4
16,COc1ccc(C(=O)c2cccc(C)c2)cc1C,5
17,CN(CCCN1c2ccccc2CCc2ccccc21)CC(=O)c1ccc(Cl)cc1,4
18,C[C@]12Cc3nonc3C[C@@H]1CC[C@@H]1[C@@H]2CC[C@@]2(C)[C@H]1CC[C@]2(C)O,5
19,CC(C)C1OCCN1CCO (stereo unspecified),4
20,CC/C=C\CCOC=O,5
21,CCCCOC(=O)[C@@H](C)Oc1ccc(Oc2ccc(C#N)cc2F)cc1,5
22,O=[N+]([O-])c1cc2c(Nc3ccc(F)c(Cl)c3)ncnc2cc1O[C@H]1CCOC1,5

row,Compound,GHS category
1,CC(C)OC(=O)C=Cc1ccccc1,5
2,CC(C)CCCC1CCC(C)(C(=O)O)CC1 (stereo unspecified),5
3,CCOC(=O)C(=O)Nc1ccncn1,4
4,O=c1c2n[nH]nc2nc2sc(CCC3CCCCC3)nn12,5
5,COc1ccccc1C1NC(=O)CCS1 (stereo unspecified),5
6,Cc1cccc(C)c1OP(=O)(Oc1c(C)cccc1C)Oc1c(C)cccc1C,5
7,CC/C=C\CCC1(C)CCC(=O)O1 (stereo unspecified),5
8,CCN(CC)CCC1=NC(=C2C=CC=CC2=O)NO1,5
9,CC(C)(C1CCC(O)CC1)C1CCC(O)CC1 (stereo unspecified),5
10,CC(C)Br,5
11,CC(=O)OC1CCC2(C)C(CCC3(C)C2C(=O)C=C2C4CC(C)(C(=O)O)CCC4(C)CCC23C)C1(C)C (stereo unspecified),5
12,CCCCCCCCCCCCCc1cccc(O)c1C(=O)O,4
13,O=C1OC(CN2CCCCC2)CC12CC(CN1CCCCC1)OC2=O (stereo unspecified),5
14,FC(Cl)C(F)(F)C(F)(F)Cl (stereo unspecified),5
15,C=CCN(C(C)=O)C(=O)Oc1cccc2c1OC(C)(C)O2,4
16,CN[C@H](CC(C)C)C(=O)N[C@H]1C(=O)N[C@@H](CC(N)=O)C(=O)N[C@H]2C(=O)N[C@H]3C(=O)N[C@H](C(=O)N[C@@H](C(=O)O)c4cc(O)cc(O)c4-c4cc3ccc4O)[C@H](O)c3ccc(c(Cl)c3)Oc3cc2cc(c3O[C@@H]2O[C@H](CO)[C@@H](O)[C@H](O)[C@H]2O[C@H]2C[C@](C)(N)C(O)[C@H](C)O2)Oc2ccc(cc2Cl)[C@H]1O (stereo partly specified),5
17,CCN(Cc1cccc(S(=O)(=O)O)c1)c1ccc(C(=C2C=CC(=[N+](CC)Cc3cccc(S(=O)(=O)O)c3)C=C2)c2ccc(O)cc2S(=O)(=O)[O-])cc1,5
18,Cc1ccc(O)c(/N=N/c2ccccc2[N+](=O)[O-])c1,5
19,Cc1cc(C(=O)Nc2cccc(C)c2C)n[nH]1,5
20,CN(C)CC(=O)O,4
21,Nc1cc(Cl)c(Cl)cc1Cl,5
22,CN(C)CCOc1nn(-c2cccc(C(F)(F)F)c2)c2ncccc12,4

row,Compound,GHS category
1,CC(CC=O)CCCC(C)(C)O (stereo unspecified),5
2,NS(=O)(=O)c1ccc(N2CCCCS2(=O)=O)cc1,5
3,COc1ccc2c(c1)CCN(c1ccccc1)C2c1ccc(OCCN2CCCC2)cc1 (stereo unspecified),4
4,COc1cc(OC)nc(N=C(O)NS(=O)(=O)c2c(Cl)nc3ccccn23)n1,5
5,CCOC[C@H]1CO[C@@](Cn2cncn2)(c2cc3cc(Cl)cc(Cl)c3o2)O1,4
6,COC(=O)c1cc(Oc2ccc(C(=O)OC)cc2N)cc(C(=O)OC)c1,5
7,CCCNC(=O)C(Cc1ccc(OCCN(CC)CC)cc1)NC(=O)c1ccccc1 (stereo unspecified),4
8,O=C1/C(=C2\Nc3ccccc3C2=O)Nc2ccccc21,5
9,C/C=C(\C)C(=O)OC(C)C,5
10,CN(CC1(C)CCCO1)S(=O)(=O)c1ccc(Cl)c(S(N)(=O)=O)c1 (stereo unspecified),5
11,CC(F)(Cl)Cl,5
12,CCCCCCCCCCSCCN1CCCC1=O,5
13,CCn1c2ccccc2c2ccccc21,5
14,FC(F)CCl,5
15,CC[C@H](C)C(=O)O[C@H]1C[C@H](O)C=C2C=C[C@H](C)[C@H](CC[C@@H](O)C[C@@H](O)CC(=O)O)[C@H]21,5
16,COC(=O)CC(C(C)=O)C(=O)OC (stereo unspecified),5
17,COCCCNc1nc(NC(C)C)nc(SC)n1,5
18,COc1ccc(-c2ccccc2)cc1NNC(=O)OC(C)C,5
19,CCCC/C=C/C=C\C=O,5
20,CCCOC(=O)Nc1nc(N2CC=CCC2)cc2nc(=O)on12,5
